Assay: solvent given as SMILES

## O=Cc1cc(O)ccc1O
In CC(C)=O
  emission maximum: 423 nm
In CCCO
  emission maximum: 484 nm
In CCO
  emission maximum: 487 nm
In CN(C)C=O
  emission maximum: 440 nm
In CN(C)P(=O)(N(C)C)N(C)C
  emission maximum: 438 nm
In CNC=O
  emission maximum: 479 nm
In CS(C)=O
  emission maximum: 446 nm
In NC=O
  emission maximum: 490 nm

## CCCCCCc1ccc(-n2c3[n+](c4c5ccccc5c5ccccc5c42)[B-](C)(C)c2ccc4ccccc4c2-3)cc1
In C1CCOC1
  emission maximum: 444 nm
In CC#N
  emission maximum: 443 nm
In Cc1ccccc1
  emission maximum: 444 nm
In ClCCl
  emission maximum: 435 nm

## CCc1c(C)[nH]c(C2=[N+]3C(=C(C)c4c(C)c(CC)c(C)n4[B-]3(F)F)c3ccccc32)c1C
In C1CCOC1
  emission maximum: 656 nm
In CC#N
  emission maximum: 652 nm
In CCCCCC
  emission maximum: 636 nm
In CO
  emission maximum: 650 nm
In Cc1ccccc1
  emission maximum: 646 nm
In ClCCl
  emission maximum: 645 nm

## N#Cc1cccc(N)c1
In C1CCCCC1
  emission maximum: 343 nm
In CC#N
  emission maximum: 369.45 nm
In CCCCCC
  emission maximum: 339.87 nm
In CCO
  emission maximum: 384 nm
In O
  emission maximum: 392 nm
In OCC(F)(F)F
  emission maximum: 380 nm

## Cc1csc(C)c1C1=C(c2c(C)sc(-c3ccc(-c4nc(-c5ccccc5)c(-c5ccccc5)[nH]4)cc3)c2C)C(F)(F)C(F)(F)C1(F)F
In C1CCOC1
  emission maximum: 410 nm

## CCCCCCCCCCCCCCCCn1c(-c2cc(-c3nc4ccc(C)cc4n3CCCCCCCCCCCCCCCC)cc(-c3nc4ccc(C)cc4n3CCCCCCCCCCCCCCCC)c2)nc2ccc(C)cc21
In C1CCOC1
  emission maximum: 366.9 nm

## CCCN1/C(=C/C=C(/C=C/C2=[N+](CCC)c3ccccc3C2(C)C)c2cc[n+](C)cc2)C(C)(C)c2ccccc21
In CO
  emission maximum: 658 nm
In CS(C)=O
  emission maximum: 657 nm
In O
  emission maximum: 658 nm

## CC1=CC(/C=C/c2ccc(N(C)C)cc2)=[N+]2C1=C(c1ccc(I)cc1)c1c(C)cc(/C=C/c3ccc(N(C)C)cc3)n1[B-]2(F)F
In CC#N
  emission maximum: 768 nm

## CC[n+]1nc2cc3c4c(c2c2cc(C)ccc21)CCCN4CCC3
In O
  emission maximum: 571 nm

## CCCCn1c2ccccc2c2ccc3c4cc(-c5cccc(F)c5)ccc4n(CCCC)c3c21
In ClC(Cl)Cl
  emission maximum: 398 nm

## COc1ccc(C2=CC(c3ccccc3)=C(c3ccccc3)C2)c2ccccc12
In ClCCl
  emission maximum: 479 nm

## COc1ccc(C#Cc2ncc(-c3ccccc3)o2)cc1OC
In ClCCl
  emission maximum: 390 nm

## O=C(c1ccc(N2c3ccccc3Oc3ccccc32)cc1)c1ccc(N2c3ccccc3Oc3ccccc32)cc1
In Cc1ccccc1
  emission maximum: 509 nm
In c1cc(-n2c3ccccc3c3ccccc32)cc(-n2c3ccccc3c3ccccc32)c1
  emission maximum: 538 nm

## CN(C)c1ccc(-c2nc3cccnc3[nH]2)cc1
In C1CCCCC1
  emission maximum: 359 nm
In CC#N
  emission maximum: 408 nm

## CCN(CC)c1ccc2cc(-c3csc(NC(C)=O)c3C#N)c(=O)oc2c1
In C1CCOC1
  emission maximum: 457 nm
In CO
  emission maximum: 477 nm
In CS(C)=O
  emission maximum: 479 nm
In Cc1ccccc1
  emission maximum: 448 nm
In ClCCl
  emission maximum: 463 nm

## CC1=C2C=CC(C)=[N+]2[B-](F)(F)n2cccc21
In CCCCCC
  emission maximum: 504 nm
In CO
  emission maximum: 502 nm
In ClCCl
  emission maximum: 506 nm

## COc1ccc(-c2ccc(-c3ccc(C#N)cc3)cc2)cc1
In C1CCCCC1
  emission maximum: 377 nm

## COCCC1(CCOC)c2cc(-c3ccc(OC)cc3)ccc2-c2ccc(-c3ccc(OC)cc3)cc21
In C1CCCCC1
  emission maximum: 371 nm

## Nc1n[n+]([O-])c2ccccc2[n+]1[O-]
In CC#N
  emission maximum: 505 nm
In O
  emission maximum: 545 nm

## CC(=O)c1cc(=O)n(C)c2cc(-c3ccc(N(C)C)cc3)sc12
In CC#N
  emission maximum: 504 nm
In ClCCl
  emission maximum: 610 nm

## CC1(C)C(/C=C/c2cc3ccc(O)cc3oc2=O)=[N+](CCCS(=O)(=O)[O-])c2ccccc21
In CCO
  emission maximum: 642 nm
In CS(C)=O
  emission maximum: 649 nm
In O
  emission maximum: 620 nm

## Cc1cccc(NC(=O)c2ccc(N(C)C)cc2)c1
In C1CCCCC1
  emission maximum: 452 nm
In C1CCOC1
  emission maximum: 518 nm
In CC#N
  emission maximum: 502 nm
In CCOCC
  emission maximum: 498 nm

## Cc1cc2c3ccccc3n(C)c2c2c1c1ccccc1n2C
In ClCCl
  emission maximum: 391 nm

## Cc1c2c(c(C)c3ccccc13)-c1c-2ccc2nc3ccccc3nc12
In ClC(Cl)Cl
  emission maximum: 648 nm

## COc1ccc2cc(C#N)c3ccc4ccccc4c3c2c1
In ClC(Cl)Cl
  emission maximum: 415 nm

## C(#Cc1ccccc1)C(C#Cc1ccccc1)=Cc1ccc2cc(C=C(C#Cc3ccccc3)C#Cc3ccccc3)ccc2c1
In ClC(Cl)Cl
  emission maximum: 473 nm

## CC(C)(C)c1ccc2c(c1)c1cc(C(C)(C)C)ccc1n2-c1ccc2c(c1)C(=O)c1ccc(-n3c4ccc(C(C)(C)C)cc4c4cc(C(C)(C)C)ccc43)cc1C2=O
In Cc1ccccc1
  emission maximum: 602 nm
In c1ccc2c(c1)c1ccccc1n2-c1ccc(-c2ccc(-n3c4ccccc4c4ccccc43)cc2)cc1
  emission maximum: 575 nm

## N#Cc1ccc(/C=C2\C=C(c3ccccc3)OC2=O)cc1
In C1COCCO1
  emission maximum: 494 nm

## CCCCc1cc(CCCC)c2ccc3c(CCCC)cc(CCCC)c4ccc1c2c43
In CCCCCC
  emission maximum: 388 nm
In CO
  emission maximum: 388 nm
In ClCCl
  emission maximum: 389 nm

— the Deep4Chem optical property database
